Results published in paper PMC3692405, “Disease-associated mutations in CNGB3 promote cytotoxicity in photoreceptor-derived cells” (Molecular Vision, 2013).
Read-outs that look alike come from different tables or passages of the source.

Columns and labels:
[1] = system: 661W cells expressing CNGA3 plus WT CNGB3; experiment: LDH-release cytotoxicity assay, cells expressing WT channels; format: cell-based, mouse; details: 24 h
Description: The mouse photoreceptor 661W cell line used in this study was generously provided by Dr. Al-Ubaidi (University of Oklahoma Health Sciences Center, Oklahoma City, OK). The 661W cells were routinely maintained in Dulbecco’s modified Eagle’s medium (Gibco, Carlsbad, CA), supplemented with 10% fetal bovine serum (Gemini Bioproducts, Sacramento, CA) and 1% penicillin/streptomycin (Gibco), at 37 °C in a humidified incubator with 5% CO2; cells were subcultured every 3–5 days. The 661W cells were transfected with pOPRSVI plasmids encoding human cone CNG channel subunits using Lipofectamine™ 2000 and OptiMEM (Life Technologies, Carlsbad, CA) according to the manufacturer’s protocol for cells in suspension. […]
For most experiments, the LDH Cytotoxicity Detection Kit (Roche Applied Science) was used according to the manufacturer’s protocol (see also [37]). […] Following treatment, half of the culture medium was transferred to another 96-well plate and the LDH released into the culture medium was measured to assess the number of damaged/dead cells. Cells in the original plate were then lysed and the total amount of cellular LDH was assessed. The percentage cytotoxicity was then calculated from the ratio of LDH concentration in the medium/cells, and was normalized to the percentage cytotoxicity in untreated cells transfected with control pOPRSVI plasmid only.

[2] = system: 661W cells expressing CNGA3 plus CNGB3 T383fsX; details: for relative cytotoxicity (LDH release, normalized to untreated vector-only control): 24 h
Description: (§1) The mouse photoreceptor 661W cell line used in this study was generously provided by Dr. Al-Ubaidi (University of Oklahoma Health Sciences Center, Oklahoma City, OK). The 661W cells were routinely maintained in Dulbecco’s modified Eagle’s medium (Gibco, Carlsbad, CA), supplemented with 10% fetal bovine serum (Gemini Bioproducts, Sacramento, CA) and 1% penicillin/streptomycin (Gibco), at 37 °C in a humidified incubator with 5% CO2; cells were subcultured every 3–5 days. The 661W cells were transfected with pOPRSVI plasmids encoding human cone CNG channel subunits using Lipofectamine™ 2000 and OptiMEM (Life Technologies, Carlsbad, CA) according to the manufacturer’s protocol for cells in suspension. A reporter plasmid—a green fluorescent protein-expressing vector (pQBI25-fC2, Wako Pure Chemical Industries, Ltd., Japan) using a constitutive CMV promoter—was transfected under the same conditions to assess transfection efficiency. […] In addition, the pOPRSVI plasmid was transfected alone as a negative control. The amounts of each vector were as follows (µg/10 cm^2 culture surface): 2 FLAG- or GFP-CNGA3 plus 2 FLAG-CNGB3 (WT, T383fsX or F525N); 4 GFP; or 4 pOPRSVI.
(§2) For most experiments, the LDH Cytotoxicity Detection Kit (Roche Applied Science) was used according to the manufacturer’s protocol (see also [37]). Briefly, cultured 661W cells were transfected with the desired plasmid constructs as described above and then plated in 96-well tissue culture plates at a density of approximately 8×10^3 cells/well. Forty-eight hours after transfection, cells were treated with various concentrations of CPT-cGMP and/or CPT-cAMP (Sigma-Aldrich) alone or together with L-cis-diltiazem (Enzo Life Sciences, Inc., Farmingdale, NY) in Dulbecco’s modified Eagle’s medium supplemented with 1% fetal bovine serum for 24 h at 37 °C. Following treatment, half of the culture medium was transferred to another 96-well plate and the LDH released into the culture medium was measured to assess the number of damaged/dead cells. Cells in the original plate were then lysed and the total amount of cellular LDH was assessed. The percentage cytotoxicity was then calculated from the ratio of LDH concentration in the medium/cells, and was normalized to the percentage cytotoxicity in untreated cells transfected with control pOPRSVI plasmid only.

[3] = system: 661W cells expressing CNGA3 plus CNGB3 F525N; details: 24 h
Description: as §1, §2

[4] = 1 µM CPT-cAMP coapplied with 0.1 µM CPT-cGMP
[5] = 10 µM CPT-cAMP combined with 0.1 µM CPT-cGMP

Compound | relative cytotoxicity (LDH release, normalized to untreated vector-only control) [1, 4] | relative cytotoxicity (LDH release, normalized to untreated vector-only control) [2, 5] | effect on relative cytotoxicity compared to CPT-cGMP treatment alone ([2]; various concentrations of CPT-cAMP coapplied with 0.1 µM CPT-cGMP) | relative cytotoxicity (LDH release, normalized to untreated vector-only control) [3, 4] | relative cytotoxicity (LDH release, normalized to untreated vector-only control) [3, 5] | relative cytotoxicity (LDH release, normalized to untreated vector-only control) ([1]; 0.1 µM CPT-cGMP) | relative cytotoxicity (LDH release, normalized to untreated vector-only control) ([2]; 0.1 µM CPT-cGMP) | relative cytotoxicity (LDH release, normalized to untreated vector-only control) ([3]; 0.1 µM CPT-cGMP alone)
Nc1ncnc2c1nc(Sc1ccc(Cl)cc1)n2[C@@H]1O[C@@H]2COP(=O)(O)O[C@H]2[C@H]1O [CPT-cAMP, CPT-adenosine 3′,5′-cyclic monophosphate] | 0.98±0.03 | 1.30±0.05 | unaltered | 1.31±0.06 | 1.67±0.08 | – | – | –
Nc1nc2c(nc(Sc3ccc(Cl)cc3)n2[C@@H]2O[C@@H]3COP(=O)(O)O[C@H]3[C@H]2O)c(=O)[nH]1 [CPT-cGMP, 8-(4-chlorophenylthio) guanosine 3′,5′-cyclic monophosphate] | – | – | – | – | – | 1.11±0.04 | 1.26±0.05 | 1.59±0.05
